Experimental data published in publication PMC11821258 (Molecules, 2025).
Read-outs that look alike come from different tables or passages of the source.

Columns and labels:
Assay type in all cases: cell-based
[1] = tested on: human colon cancer HCT116 cells; experiment: Antiproliferative activity, SRB assay, 72 h; conditions: for SI: IC50 MCF-10A / IC50 HCT116
Procedure: (§1) The tested compounds were dissolved in DMSO (dimethyl sulfoxide) to a concentration of 10 mg/mL and then were diluted in the culture medium to reach the final concentrations. The cells were plated in 384-well plates at a density of 1 × 10^3 or 2 × 10^3 (MCF-10A) cells per well (Greiner Bio One, Kremsmünster, Austria) and in 96-well plates (MV4-11 cell; Sarstedt, Nümbrecht, Germany) at a density of 5 × 10^3 cells per well. After 24 h of incubation, the tested compounds were added at concentrations in the range of 100–0.03 µg/mL and, after the next 72 h of exposure to tested agents, the cytotoxic effect of all agents was examined using the MTT (MV4-11) or SRB assay, described previously. The values of IC50 (inhibitory concentration 50%) were calculated separately for each experiment (repeated 3–5 times) using the Prolab-3 system which is based on Cheburator 0.4 software. Doxorubicin was applied as a reference drug. The IC50 values in µg/mL were calculated to µM.
(§2) The cytotoxicity assay was performed after the cultured cells were exposed to the tested agents for 72 h using the authomatic Washer dyspenser EL406, BioTek. At the first step, the washer dispenser collected 40 µL of cultured medium from each wells, and then the cells were fixed by gently layering 20 µL per well of cold 25% trichloroacetic acid to each well. The incubation time was 40 min and then the plates were washed with tap water. The cells were stained with 20 µL per well of 0.1% sulforhodamine B (SRB, Merck, Darmstadt, Germany) for 30 min. Unbound sulforhodamine B was removed by washing it with 1% acetic acid. The protein-bound dye was extracted in 30 min using 70 µL per well of 10 mM unbuffered Tris base (Merck, Darmstadt, Germany). The absorbance (at 540 nm) was measured on a Synergy H4 photometer (BioTek Instruments, Winooski, VT, USA). The absorbance of the wells without the cells was the background.

[2] = tested on: human melanoma Hs294T cells; experiment: Antiproliferative activity, SRB assay, 72 h; conditions: for IC50: 72 h; for SI: IC50 MCF-10A / IC50 Hs249T (so in the source)
Procedure: as §1, §2

[3] = tested on: human breast cancer MCF-7; experiment: Antiproliferative activity, SRB assay, 72 h; conditions: for IC50: Homo sapiens; for SI: IC50 MCF-10A / IC50 MCF-7
Procedure: as §1, §2

[4] = tested on: human pancreas cancer MiaPaca-2 cells; experiment: Antiproliferative activity, SRB assay, 72 h; conditions: for SI: IC50 MCF-10A / IC50 MiaPaca-1 (so in the source)
Procedure: as §1, §2

[5] = tested on: human prostate adenocarcinoma PC-3; experiment: Antiproliferative activity, SRB assay, 72 h; conditions: for IC50: Homo sapiens; for SI: IC50 MCF-10A / IC50 PC-3
Procedure: as §1, §2

[6] = tested on: human lung carcinoma A549; experiment: Antiproliferative activity, SRB assay, 72 h; conditions: for IC50: A549, 72 h; for SI: IC50 MCF-10A / IC50 A549
Procedure: as §1, §2

[7] = tested on: human biphenotypic B myelomonocytic leukemia MV4-11; experiment: Antiproliferative activity, MTT assay, 72 h; conditions: for IC50: Homo sapiens, MV4-11, 72 h; for SI: IC50 MCF-10A / IC50 MV4-11
Procedure: as §1
This assay was used against MV4-11 leukemia cells and was performed after 72 h of exposure of the tested agents to the cells. For each well, 20 µL of the MTT [3-(4,5-dimethylthiazol-2-yl)-2,5-diphenyl tetrazolium bromide] solution (5 mg/mL, Merck, Darmstadt, Germany) was added. After the incubation time (4 h at 37 °C), 80 µL of the lysing buffer was added to each well (mixture of 225 mL of DMF (dimethylformamide) Avantor, Poland; 67.5 g of SDS, Merck, Darmstadt, Germany; and 275 mL of distilled water). After the next 24 h, the absorbance of the samples was measured at a 570 nm wavelength on a Synergy H4 photometer (BioTek Instruments, Winooski, VT, USA). The absorbance of wells without the cells was the background.

[8] = tested on: human normal epithelial cells from the mammary gland (MCF-10A); experiment: Cytotoxicity on non-tumorigenic cells, SRB assay, 72 h
Procedure: as §1, §2

[9] = Homo sapiens, HCT-116, HCT116, 72 h, SRB, read-out: IC50
[10] = Homo sapiens, Hs 294T, Hs249T (so in the source), SRB, read-out: IC50
[11] = MCF7, MCF-7, 72 h, SRB, read-out: IC50
[12] = Homo sapiens, MIA PaCa-2, MiaPaca-1 (so in the source), 72 h, SRB, read-out: IC50
[13] = PC-3, 72 h, SRB, read-out: IC50
[14] = Homo sapiens, SRB, read-out: IC50
[15] = Homo sapiens, MCF-10A normal cells, SRB, read-out: IC50

SMILES	IC50 [1, 9] [µM]	SI [1]	IC50 [2, 10] [µM]	SI [2]	IC50 [3, 11] [µM]	SI [3]	IC50 [4, 12] [µM]	SI [4]	IC50 [5, 13] [µM]	SI [5]	IC50 [6, 14] [µM]	SI [6]	IC50 ([7]; MTT, read-out: IC50) [µM]	SI [7]	IC50 [8, 15] [µM]	also measured
C=C(C)[C@@H]1CC[C@]2(COC(C)=O)CC[C@]3(C)[C@H](CC[C@@H]4[C@@]5(C)CC[C@H](O)C(C)(C)[C@@H]5CC[C@]43C)[C@@H]12 [A, 28-O-acetylbetulin, reference compound]	40.6 ± 13.6	3.05	128 ± 14.2	0.97	72.4 ± 6.6	1.71	127 ± 16.3	0.98	80.7 ± 13.4	1.54	27.8 ± 10.5	4.45	41.1 ± 8.46	3.02	124 ± 33	–
C=C(C)[C@@H]1CC[C@]2(COC(C)=O)CC[C@]3(C)C(CCC4[C@@]5(C)CC[C@H](OC(=O)CC(C)(C)CC(=O)O)C(C)(C)C5CC[C@]43C)C12 (stereo partly shown) [Compound 1]	6.38 ± 2.87	5.20	11.6 ± 1.12	2.85	7.02 ± 2.39	4.73	23.6 ± 3.83	1.41	14 ± 7.02	2.36	4.94 ± 0.48	6.71	2.9 ± 0.26	11.44	33.2 ± 1.91	–
C=C(C)[C@@H]1CC[C@]2(COC(C)=O)CC[C@]3(C)C(CCC4[C@@]5(C)CC[C@H](OC(=O)CC(C)(C)C(=O)O)C(C)(C)C5CC[C@]43C)C12 (stereo partly shown) [Compound 2, 28-acetyl-3-(3′,3′-dimethylsuccinyl)betulin]	–	3.10	–	1.23	–	2.04	–	1.20	–	1.69	–	7.43	–	7.70	–	IC50 ([1]; Homo sapiens, HCT-116, 72 h): 10.9 ± 2.94 µM; IC50 ([2]; Homo sapiens, Hs 294T): 27.6 ± 0.65 µM; IC50 ([3]; MCF7, 72 h): 16.6 ± 7.67 µM; IC50 ([4]; Homo sapiens, MIA PaCa-2, 72 h): 28.2 ± 4.4 µM; IC50 ([5]; 72 h): 20.1 ± 2.12 µM; IC50 ([6]; Homo sapiens): 4.57 ± 1.79 µM; IC50 [7]: 4.4 ± 1.63 µM; IC50 ([8]; Homo sapiens, MCF-10A): 33.9 ± 4.24 µM
C=C(C)[C@@H]1CC[C@]2(COC(C)=O)CC[C@]3(C)C(CCC4[C@@]5(C)CC[C@H](OC(=O)CCC(=O)O)C(C)(C)C5CC[C@]43C)C12 (stereo partly shown) [Compound 3]	–	2.55	–	1.53	–	1.94	–	0.97	–	1.50	–	6.53	–	8.82	–	IC50 ([1]; Homo sapiens, HCT-116, 72 h): 13.2 ± 1.02 µM; IC50 ([2]; Homo sapiens, Hs 294T): 21.9 ± 4.27 µM; IC50 ([3]; MCF7, 72 h): 17.3 ± 6.33 µM; IC50 ([4]; Homo sapiens, MIA PaCa-2, 72 h): 34.5 ± 5.47 µM; IC50 ([5]; 72 h): 22.4 ± 2.56 µM; IC50 ([6]; Homo sapiens): 5.13 ± 0.85 µM; IC50 [7]: 3.93 ± 1.54 µM; IC50 ([8]; Homo sapiens, MCF-10A): 33.5 ± 1.88 µM
C=C(C)[C@@H]1CC[C@]2(COC(=O)C#CC)CC[C@]3(C)C(CCC4[C@@]5(C)CC[C@H](OC(=O)CC(C)(C)CC(=O)O)C(C)(C)C5CC[C@]43C)C12 (stereo partly shown) [Compound 4c]	8.45 ± 2.15	3.85	9.68 ± 1.54	3.37	16.6 ± 2.15	1.96	22.7 ± 5.53	1.43	10.1 ± 2.46	3.21	7.37 ± 2.3	4.42	3.23 ± 1.38	10.10	32.6 ± 2.15	–
C=C(C)[C@@H]1CC[C@]2(COC(=O)CC)CC[C@]3(C)C(CCC4[C@@]5(C)CC[C@H](OC(=O)CC(C)(C)CC(=O)O)C(C)(C)C5CC[C@]43C)C12 (stereo partly shown) [Compound 4d]	16.9 ± 5.61	3.58	18.7 ± 9.67	3.23	20.6 ± 5.77	2.93	34.2 ± 2.96	1.77	21.7 ± 4.52	2.78	6.24 ± 1.25	9.68	5.15 ± 0.47	11.73	60.4 ± 15.9	–
C=C(C)[C@@H]1CC[C@]2(COC(=O)C#CC3CC3)CC[C@]3(C)C(CCC4[C@@]5(C)CC[C@H](OC(=O)CC(C)(C)CC(=O)O)C(C)(C)C5CC[C@]43C)C12 (stereo partly shown) [Compound 4e]	23.2 ± 5.91	2.93	19.8 ± 5.61	3.40	25.7 ± 4.43	2.60	67.1 ± 14.5	1.01	15.2 ± 5.91	4.47	59.8 ± 22.2	1.14	3.16 ± 0.88	21.50	68 ± 34.9	–
C=C(C)[C@@H]1CC[C@]2(COC(=O)C#Cc3ccccc3)CC[C@]3(C)C(CCC4[C@@]5(C)CC[C@H](OC(=O)CC(C)(C)CC(=O)O)C(C)(C)C5CC[C@]43C)C12 (stereo partly shown) [Compound 4f]	–	–	–	–	–	–	–	–	–	–	–	–	–	–	–	IC50 ([1]; HCT116, 72 h, SRB): does not show activity and Neg; IC50 ([2]; Hs249T (so in the source), SRB): Neg; IC50 ([3]; MCF7, 72 h): 131 ± 8.83 µM; IC50 ([4]; MiaPaca-1 (so in the source), 72 h, SRB): Neg; IC50 ([5]; 72 h): 95.8 ± 27.1 µM; IC50 ([6]; SRB): does not show activity and Neg; IC50 [7]: 46.6 ± 11.8 µM; IC50 ([8]; MCF-10A normal cells, SRB): Neg
C=C(C)[C@@H]1CC[C@]2(CO)CC[C@]3(C)C(CCC4[C@@]5(C)CC[C@H](OC(=O)CC(C)(C)C(=O)O)C(C)(C)C5CC[C@]43C)C12 (stereo partly shown) [Compound 5]	14.7 ± 4.55	1.82	30.8 ± 1.4	0.87	29.2 ± 3.85	0.92	30.7 ± 2.63	0.87	27 ± 3.85	1.01	9.11 ± 0.87	2.94	7.81 ± 2.8	3.43	26.8 ± 2.1	–
C#CC(=O)OC[C@]12CC[C@@H](C(=C)C)C1C1CCC3[C@@]4(C)CC[C@H](OC(=O)CC(C)(C)C(=O)O)C(C)(C)C4CC[C@@]3(C)[C@]1(C)CC2 (stereo partly shown) [Compound 5a]	3.64 ± 0.6	3.49	–	–	19.4 ± 3.1	0.65	–	–	0.85 ± 0.17	14.94	10.7 ± 3	1.18	0.6 ± 0.175	21.17	12.7 ± 0.5	–
C=C(C)[C@@H]1CC[C@]2(COC(=O)C#CC)CC[C@]3(C)C(CCC4[C@@]5(C)CC[C@H](OC(=O)CC(C)(C)C(=O)O)C(C)(C)C5CC[C@]43C)C12 (stereo partly shown) [Compound 5c]	9.26 ± 0.47	3.46	23.2 ± 3.77	1.38	25 ± 4.87	1.28	32 ± 6.12	1.00	22.9 ± 4.71	1.40	6.59 ± 1.88	4.86	11 ± 1.1	2.91	32 ± 4.87	–
C=C(C)[C@@H]1CC[C@]2(COC(=O)CC)CC[C@]3(C)C(CCC4[C@@]5(C)CC[C@H](OC(=O)CC(C)(C)C(=O)O)C(C)(C)C5CC[C@]43C)C12 (stereo partly shown) [Compound 5d]	12.3 ± 4.15	2.78	59.7 ± 38.6	0.57	21.1 ± 9.89	1.62	29.2 ± 1.59	1.17	16.6 ± 6.54	2.06	4.62 ± 1.59	7.38	2.5 ± 0.48	13.63	34.1 ± 4.94	–
